This note sets out measurements from the supplement of paper PMC11061612.

In experiment [1] the test system is NB(TU)1-10 (Neuroblastoma). As to the kind of experiment: Bliss excess, mean over the matrix (fraction); higher = more synergy. In short, it runs like this: (§1)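 Cell lines in DMEM/F12 or RPMI with 10% FBS were plated in 1536-well plates, held 24 hours at 37°C, 5% CO2, then given two-drug dose matrices for 72 hours (DMSO typically 0.2%). Viability was read by CellTiter-Glo 2.0 luminescence and scaled as inhibition from 0 (vehicle wells) to 1 (blank wells). Combination Emax is the second-highest inhibition in the matrix; Bliss excess is observed combination effect minus expected EA + EB − EA·EB, EA and EB being single-agent effects.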

Experiment [2] has as its system IGR-1 (Melanoma). As to the kind of experiment: combination Emax (second highest fraction inhibited in the dose matrix, 72 h); higher = more inhibition; extreme values may be limits of the assay. In short, it runs like this: as §1
Experiment [3] concerns IHH-4 (Thyroid Gland Carcinoma). The experiment is described as above. In short, it runs like this:
as §1

The subject of experiment [4] is NB(TU)1-10 (Neuroblastoma). Described as above. In short, it runs like this: as §1
Experiment [5] has as its system NCI-H211 (Small Cell Lung Carcinoma). The experiment can be described thus: Bliss excess, mean over the matrix (fraction); higher = more synergy. A digest of the protocol: as §1
Experiment [6] shares this test system. As to the kind of experiment: combination Emax (second highest fraction inhibited in the dose matrix, 72 h); higher = more inhibition; extreme values may be limits of the assay. A digest of the protocol:
as §1
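For Bliss excess, mean over the matrix in this document: after 72 h of two-drug dosing.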

For the molecule `COc1cccc(OCCCN)c1-c1cc(Nc2cnc(C#N)cn2)n[nH]1` [Prexasertib] + CN(C)CCCOc1ccc(-c2ccc3ncc4c(c3c2)n(C2CCOCC2)c(=O)n4C)cn1 [AZD0156] (first compound max 1 µM, 7x7, partner max 1 µM), the Bliss excess in experiment [1] was -0.0519. Moreover, the “combination Emax” value in experiment [2] stood at 0.466; in experiment [3], 0.901; in experiment [4], 0.934.
Take `C[C@@H]1COCCN1c1cc(C2([S@](C)(=N)=O)CC2)nc(-c2ccnc3[nH]ccc23)n1` [AZD6738] + O=C(c1cc(Cc2n[nH]c(=O)c3ccccc23)ccc1F)N1CCN(C(=O)C2CC2)CC1 [Olaparib] (first compound max 10 µM, 7x7, partner max 10 µM): the Bliss excess in experiment [1] amounted to 0.0254. The “combination Emax” value was found to be 0.452 in experiment [2], 0.773 in experiment [3] and 0.751 in experiment [4].
As for `COc1cccc(OCCCN)c1-c1cc(Nc2cnc(C#N)cn2)n[nH]1` [Prexasertib] + C=CCn1c(=O)c2cnc(Nc3ccc(N4CCN(C)CC4)cc3)nc2n1-c1cccc(C(C)(C)O)n1 [AZD1775] (first compound max 1 µM, partner max 1 µM), the Bliss excess in experiment [1] is -0.0039. In addition, the “combination Emax” value stood at 0.708 in experiment [2], 0.99 in experiment [3] and 0.965 in experiment [4].
Taken in the same sequence, the figures for `Cc1cc2ncnn2cc1Nc1ncc2c(n1)n(C1CCOCC1)c(=O)n2C` [AZD7648] + C[C@@H]1COCCN1C2=NC(=NC(=C2)C3(CC3)[S@](=N)(=O)C)C4=C5C=CNC5=NC=C4 [AZD6738] (first compound max 10 µM, 7x7, partner max 10 µM) were -0.0214, 0.348, 0.756 and 0.713.
For `CCN(CCO)CCCOc1ccc2c(Nc3cc(CC(=O)Nc4cccc(F)c4)[nH]n3)ncnc2c1` [AZD2811] + C[C@@H]1COCCN1C2=NC(=NC(=C2)C3(CC3)[S@](=N)(=O)C)C4=C5C=CNC5=NC=C4 [AZD6738] (first compound max 1 µM, 7x7, partner max 10 µM) the same measures were -0.063, 0.374, 0.763 and 0.756.
Taken in the same sequence, the figures for `Cc1cc2ncnn2cc1Nc1ncc2c(n1)n(C1CCOCC1)c(=O)n2C` [AZD7648] + CN(C)CCCOc1ccc(-c2ccc3ncc4c(c3c2)n(C2CCOCC2)c(=O)n4C)cn1 [AZD0156] (first compound max 10 µM, 7x7, partner max 1 µM) were 0.0361, 0.0864, 0.329 and 0.322.
For the molecule `C=CCn1c(=O)c2cnc(Nc3ccc(N4CCN(C)CC4)cc3)nc2n1-c1cccc(C(C)(C)O)n1` [AZD1775] + C[C@@H]1COCCN1C2=NC(=NC(=C2)C3(CC3)[S@](=N)(=O)C)C4=C5C=CNC5=NC=C4 [AZD6738] (first compound max 1 µM, partner max 10 µM), in experiment [1], the Bliss excess came out at 0.0985. Also, the “combination Emax” value in experiment [2] worked out at 0.538; in experiment [3], 0.886; in experiment [4] it was 0.875.
Taken in the same sequence, the figures for `COc1cccc2c1C(=O)c1c(O)c3c(c(O)c1C2=O)C[C@@](O)(C(=O)CO)C[C@@H]3O[C@H]1C[C@H](N)[C@H](O)[C@H](C)O1` [Doxorubicin] + Cc1cc2ncnn2cc1Nc1ncc2c(n1)n(C1CCOCC1)c(=O)n2C [AZD7648] (first compound max 1 µM, 7x7, partner max 10 µM) were 0.0954, 0.697, 0.951 and 0.793.
For the molecule `CN(C)CCCOc1ccc(-c2ccc3ncc4c(c3c2)n(C2CCOCC2)c(=O)n4C)cn1` [AZD0156] + CCN(CCO)CCCOc1ccc2c(Nc3cc(CC(=O)Nc4cccc(F)c4)[nH]n3)ncnc2c1 [AZD2811] (first compound max 1 µM, 7x7, partner max 1 µM), the Bliss excess in experiment [1] is -0.0294. For the same molecule, the “combination Emax” value came to 0.135 in experiment [2], 0.322 in experiment [3] and 0.292 in experiment [4].
For `COc1cc2c(cc1OCCCCCOc1cc3c(cc1OC)C(=O)N1C=C(C)C[C@H]1C=N3)N=C[C@@H]1CC(C)=CN1C2=O` [SG3199] + O=C(c1cc(Cc2n[nH]c(=O)c3ccccc23)ccc1F)N1CCN(C(=O)C2CC2)CC1 [Olaparib] (first compound max 0.001 µM, 7x7, partner max 10 µM) the same measures were -0.0149, 0.187, 0.193 and 0.187.
As to `COc1cccc(OCCCN)c1-c1cc(Nc2cnc(C#N)cn2)n[nH]1` [Prexasertib] + C[C@@H]1COCCN1C2=NC(=NC(=C2)C3(CC3)[S@](=N)(=O)C)C4=C5C=CNC5=NC=C4 [AZD6738] (first compound max 1 µM, 7x7, partner max 10 µM), in experiment [1], the Bliss excess was -0.141. Further, the entries for the “combination Emax” value in experiment [2], in experiment [3] and in experiment [4] were 0.566, 0.862 and 0.94, respectively.
Consider `CCc1c2c(nc3ccc(O)cc13)-c1cc3c(c(=O)n1C2)COC(=O)[C@]3(O)CC` [SN-38] + O=C(c1cc(Cc2n[nH]c(=O)c3ccccc23)ccc1F)N1CCN(C(=O)C2CC2)CC1 [Olaparib] (first compound max 0.3 µM, 7x7, partner max 10 µM), for which, in experiment [1], the Bliss excess was 0.0289. Also, the “combination Emax” value was 0.634 in experiment [2], 0.921 in experiment [3] and 0.805 in experiment [4].
For `Cc1cc2ncnn2cc1Nc1ncc2c(n1)n(C1CCOCC1)c(=O)n2C` [AZD7648] + CCN(CCO)CCCOc1ccc2c(Nc3cc(CC(=O)Nc4cccc(F)c4)[nH]n3)ncnc2c1 [AZD2811] (first compound max 10 µM, 7x7, partner max 1 µM) the same measures were -0.0403, 0.0874, 0.454 and 0.297.
For `CN(C)CCCOc1ccc(-c2ccc3ncc4c(c3c2)n(C2CCOCC2)c(=O)n4C)cn1` [AZD0156] + C=CCn1c(=O)c2cnc(Nc3ccc(N4CCN(C)CC4)cc3)nc2n1-c1cccc(C(C)(C)O)n1 [AZD1775] (first compound max 1 µM, partner max 1 µM) the same measures were 0.014, 0.223, 0.821 and 0.857.
For `CCN(CCO)CCCOc1ccc2c(Nc3cc(CC(=O)Nc4cccc(F)c4)[nH]n3)ncnc2c1` [AZD2811] + C=CCn1c(=O)c2cnc(Nc3ccc(N4CCN(C)CC4)cc3)nc2n1-c1cccc(C(C)(C)O)n1 [AZD1775] (first compound max 1 µM, partner max 1 µM) the same measures were 0.0337, 0.314, 0.667 and 0.881.
`C=CCn1c(=O)c2cnc(Nc3ccc(N4CCN(C)CC4)cc3)nc2n1-c1cccc(C(C)(C)O)n1` [AZD1775] + O=C(c1cc(Cc2n[nH]c(=O)c3ccccc23)ccc1F)N1CCN(C(=O)C2CC2)CC1 [Olaparib] (first compound max 1 µM, partner max 10 µM): the Bliss excess in experiment [1] was determined as 0.0461. Further, the “combination Emax” value was 0.296 in experiment [2], 0.695 in experiment [3] and 0.815 in experiment [4].
For `Cc1cc2ncnn2cc1Nc1ncc2c(n1)n(C1CCOCC1)c(=O)n2C` [AZD7648] + O=C(c1cc(Cc2n[nH]c(=O)c3ccccc23)ccc1F)N1CCN(C(=O)C2CC2)CC1 [Olaparib] (first compound max 10 µM, 7x7, partner max 10 µM) the same measures were -0.0408, 0.164, 0.219 and 0.263.
Taken in the same sequence, the figures for `COc1cccc(OCCCN)c1-c1cc(Nc2cnc(C#N)cn2)n[nH]1` [Prexasertib] + CCc1c2c(nc3ccc(O)cc13)-c1cc3c(c(=O)n1C2)COC(=O)[C@]3(O)CC [SN-38] (first compound max 1 µM, 7x7, partner max 0.3 µM) were -0.0763, 0.893, 0.965 and 0.922.
Taken in the same sequence, the figures for `CCc1c2c(nc3ccc(O)cc13)-c1cc3c(c(=O)n1C2)COC(=O)[C@]3(O)CC` [SN-38] + CN(C)CCCOc1ccc(-c2ccc3ncc4c(c3c2)n(C2CCOCC2)c(=O)n4C)cn1 [AZD0156] (first compound max 0.3 µM, 7x7, partner max 1 µM) were -0.0787, 0.497, 1 and 0.805.
Regarding `Cc1cc2ncnn2cc1Nc1ncc2c(n1)n(C1CCOCC1)c(=O)n2C` [AZD7648] + C=CCn1c(=O)c2cnc(Nc3ccc(N4CCN(C)CC4)cc3)nc2n1-c1cccc(C(C)(C)O)n1 [AZD1775] (first compound max 10 µM, partner max 1 µM), in experiment [1], the Bliss excess was -0.062. For the same molecule, the results for the “combination Emax” value in experiment [2], in experiment [3] and in experiment [4] were 0.25, 0.802 and 0.824, respectively.
Taken in the same sequence, the figures for `CCN(CCO)CCCOc1ccc2c(Nc3cc(CC(=O)Nc4cccc(F)c4)[nH]n3)ncnc2c1` [AZD2811] + O=C(c1cc(Cc2n[nH]c(=O)c3ccccc23)ccc1F)N1CCN(C(=O)C2CC2)CC1 [Olaparib] (first compound max 1 µM, 7x7, partner max 10 µM) were 0.0344, 0.168, 0.459 and 0.257.
Take `CC(=O)c1c(C)c2cnc(Nc3ccc(N4CCNCC4)cn3)nc2n(C2CCCC2)c1=O` [Palbociclib] + Cc1c2c(nn1C)CSCc1cc(n(C)n1)CSc1cc(c3ccccc3c1)OCCCc1c(C(=O)O)n(C)c3c-2c(Cl)ccc13 [AZD5991] (first compound max 10 µM, 7x7, partner max 1 µM): in experiment [5], the Bliss excess stood at 0.118. The “combination Emax” value in experiment [2] was 0.818; in experiment [3] it was 0.411; in experiment [6], 0.905.
Taken in the same sequence, the figures for `CC(=O)c1c(C)c2cnc(Nc3ccc(N4CCNCC4)cn3)nc2n(C2CCCC2)c1=O` [Palbociclib] + Cn1cnc2c(F)c(Nc3ccc(Br)cc3Cl)c(C(=O)NOCCO)cc21 [Selumetinib] (first compound max 10 µM, 7x7, partner max 10 µM) were 0.0861, 0.919, 0.59 and 0.657.
For `Cn1cnc2c(F)c(Nc3ccc(Br)cc3Cl)c(C(=O)NOCCO)cc21` [Selumetinib] + CCN(CCO)CCCOc1ccc2c(Nc3cc(CC(=O)Nc4cccc(F)c4)[nH]n3)ncnc2c1 [AZD2811] (first compound max 10 µM, 7x7, partner max 1 µM) the same measures were -0.0446, 0.393, 0.586 and 0.938.
For `COc1nnc2ccc(N3CCC(c4ccc(OCCN5CCN(C)C(=O)[C@H]5C)cc4)CC3)nn12` [AZD5153] + CC1(C)CCC(CN2CCN(c3ccc(C(=O)NS(=O)(=O)c4ccc(NCC5CCOCC5)c([N+](=O)[O-])c4)c(Oc4cnc5[nH]ccc5c4)c3)CC2)=C(c2ccc(Cl)cc2)C1 [Venetoclax] (first compound max 1 µM, 7x7, partner max 1 µM) the same measures were 0.03, 0.433, 0.498 and 1.
As for `COc1nnc2ccc(N3CCC(c4ccc(OCCN5CCN(C)C(=O)[C@H]5C)cc4)CC3)nn12` [AZD5153] + Cc1c2c(nn1C)CSCc1cc(n(C)n1)CSc1cc(c3ccccc3c1)OCCCc1c(C(=O)O)n(C)c3c-2c(Cl)ccc13 [AZD5991] (first compound max 1 µM, 7x7, partner max 1 µM), the Bliss excess in experiment [5] is -0.0175. For the same molecule, the figures for the “combination Emax” value in experiment [2], in experiment [3] and in experiment [6] were 0.752, 0.544 and 1, respectively.
Taken in the same sequence, the figures for `COc1nnc2ccc(N3CCC(c4ccc(OCCN5CCN(C)C(=O)[C@H]5C)cc4)CC3)nn12` [AZD5153] + CCN(CCO)CCCOc1ccc2c(Nc3cc(CC(=O)Nc4cccc(F)c4)[nH]n3)ncnc2c1 [AZD2811] (first compound max 1 µM, 7x7, partner max 1 µM) were -0.0081, 0.522, 0.682 and 1.
